Structures are written as SMILES. Counter-ions that a name gives are not always drawn. Some results are limits rather than exact numbers.

The first experiment deals with LP-1 cell line. Put plainly: Cell-based pERK ELISA method, LP-1 cells. The conditions noted are these: Homo sapiens, LP-1, read-out: IC50 less than 1 μM or at least 50% inhibition at a concentration of 1 μM, LP-1 pERK ELISA. (In general: ELISA stands for enzyme-linked immunosorbent assay.)
As for `COC1CCCN(c2ccn3c(-c4cccc(NC(=O)NCC(F)(F)F)c4)cnc3c2)C1` (racemic) [Example 203, (±)-1-{3-[7-(3-Methoxy-piperidin-1-yl)-imidazo[1,2-a]pyridin-3-yl]-phenyl}-3-(2,2,2-trifluoro-ethyl)-urea], the IC50 was under 1 µM.
Turning to `CC(=O)Nc1cccc(-c2cnc3cc(-c4ccccc4)ccn23)c1` [Example 2, N-[3-(7-Phenyl-imidazo[1,2-a]pyridin-3-yl)-phenyl]-acetamide hydro-chloride salt], the IC50 is under 1 µM.
As to `CC(=O)Nc1cccc(-c2cnc3cc(-c4ccc(N5CCOCC5)cc4)ccn23)c1` [Example 5, N-{3-[7-(4-Morpholin-4-yl-phenyl)-imidazo[1,2-a]pyridin-3-yl]-phenyl}-acetamide], the IC50 is under 1 µM.
With `CC(=O)Nc1cccc(-c2cnc3cc(-c4ccncc4)ccn23)c1` [Example 6, N-[3-(7-Pyridin-4-yl-imidazo[1,2-a]pyridin-3-yl)-phenyl]-acetamide], the IC50 was under 1 µM.
With `CC(=O)Nc1cccc(-c2cnc3cc(-c4ccc(F)cc4)ccn23)c1` [Example 7, N-{3-[7-(4-Fluoro-phenyl)-imidazo[1,2-a]pyridin-3-yl]-phenyl}-acetamide], the IC50 is under 1 µM.
On the same count and under the same terms, in the case of `CC(=O)Nc1cccc(-c2cnc3cc(-c4cccc(CO)c4)ccn23)c1` [Example 8, N-{3-[7-(3-Hydroxymeth-yl-phenyl)-imidazo[1,2-a]pyridin-3-yl]-phenyl}-acetamide] it was under 1 µM.
For the compound `CC(=O)Nc1cccc(-c2cnc3cc(-c4cccc(CN5CCOCC5)c4)ccn23)c1` [Example 9, N-{3-[7-(3-Morpholin-4-ylmethyl-phenyl)-imidazo[1,2-a]pyridin-3-yl]-phenyl}-acetamide], the IC50 was under 1 µM.
On to `CC(=O)Nc1cccc(-c2cnc3cc(-c4ccc(CN5CCOCC5)cc4)ccn23)c1` [Example 10, N-{3-[7-(4-Morpholin-4-ylmethyl-phenyl)-imidazo[1,2-a]pyridin-3-yl]-phenyl}-acetamide hydro-chloride salt], for which the IC50 was under 1 µM.
For the compound `CC(=O)Nc1cccc(-c2cnc3cc(-c4cccc(CC(=O)O)c4)ccn23)c1` [Example 11, {3-[3-(3-Acetylamino-phenyl)-imidazo[1,2-a]pyridin-7-yl]-phenyl}-acetic acid], the IC50 is under 1 µM.
Consider `CCNC(=O)Nc1cccc(-c2cnc3cc(-c4ccc(F)cc4)ccn23)c1` [Example 15, 1-Ethyl-3-{3-[7-(4-fluoro-phenyl)-imidazo[1,2-a]pyridin-3-yl]-phenyl}-urea formate salt], for which the IC50 was under 1 µM.
Regarding `COC(=O)Nc1cccc(-c2cnc3cc(-c4ccc(F)cc4)ccn23)c1` [Example 16, {3-[7-(4-Fluoro-phenyl)-imidazo[1,2-a]pyridin-3-yl]-phenyl}-carbamic acid methyl ester formate salt], the IC50 is under 1 µM.
For `CC(=O)Nc1cc(C#N)cc(-c2cnc3cc(-c4cccc(CN5CCOCC5)c4)ccn23)c1` [Example 28, N-{3-Cyano-5-[7-(3-morpholin-4-ylmethyl-phenyl)-imidazo[1,2-a]pyridin-3-yl]-phenyl}-acetamide], the IC50 was under 1 µM.
Take `CCNC(=S)Nc1cccc(-c2cnc3cc(-c4cccc(CN5CCN(C)CC5)c4)ccn23)c1` [Example 29, 1-Ethyl-3-(3-{7-[3-(4-methyl-piperazin-1-ylmethyl)-phenyl]-imidazo[1,2-a]pyridin-3-yl}-phenyl)-thiourea]: the IC50 was under 1 µM.
As to `CCNC(=O)Nc1cccc(-c2cnc3cc(-c4cccc(CN5CCCCC5)c4)ccn23)c1` [Example 35, 1-Ethyl-3-{3-[7-(3-piperidin-1-ylmethyl-phenyl)-imidazo[1,2-a]pyridin-3-yl]-phenyl}-urea], the IC50 was under 1 µM.
Still for that read-out and setting: in the case of `CCNC(=O)Nc1cccc(-c2cnc3cc(-c4cccc(C(=O)N5CCOCC5)c4)ccn23)c1` [Example 36, 1-Ethyl-3-(3-{7-[3-(morpholine-4-carbonyl)-phenyl]-imidazo[1,2-a]pyridin-3-yl}-phenyl)-urea] it was under 1 µM; in that of `CCNC(=O)Nc1cccc(-c2cnc3cc(-c4ccc(C(C)(C)C(=O)OC)cc4)ccn23)c1` [Example 39, 2-(4-{3-[3-(3-Ethyl-ureido)-phenyl]-imidazo[1,2-a]pyridin-7-yl}-phenyl)-2-methyl-propionic acid methyl ester], under 1 µM; in that of `CCNC(=O)Nc1cccc(-c2cnc3cc(-c4ccc(OC)nc4)ccn23)c1` [Example 43, 1-Ethyl-3-{3-[7-(6-methoxy-pyridin-3-yl)-imidazo[1,2-a]pyridin-3-yl]-phenyl}-urea], under 1 µM.
`CCNC(=O)Nc1cccc(-c2cnc3cc(-c4ccnc(OC)c4)ccn23)c1` [Example 45, 1-Ethyl-3-{3-[7-(2-methoxy-pyridin-4-yl)-imidazo[1,2-a]pyridin-3-yl]-phenyl}-urea]: the IC50 is under 1 µM.
`CCNC(=O)Nc1cccc(-c2cnc3cc(-c4ccc(N5CCOCC5)nc4)ccn23)c1` [Example 49, 1-Ethyl-3-{3-[7-(6-morpholin-4-yl-pyridin-3-yl)-imidazo[1,2-a]pyridin-3-yl]-phenyl}-urea formate salt]: the IC50 is under 1 µM.
Consider `CCNC(=O)Nc1cccc(-c2cnc3cc(-c4ccc(CCN5CCOCC5)cc4)ccn23)c1` [Example 56, 1-Ethyl-3-(3-{7-[4-(2-morpholin-4-yl-ethyl)-phenyl]-imidazo[1,2-a]pyridin-3-yl}-phenyl)-urea hydro-chloride salt], for which the IC50 is under 1 µM.
For the compound `CCNC(=O)Nc1cccc(-c2cnc3cc(-c4ccc(N5CCNCC5)cc4)ccn23)c1` [Example 57, 1-Ethyl-3-{3-[7-(4-piperazin-1-yl-phenyl)-imidazo[1,2-a]pyridin-3-yl]-phenyl}-urea hydro-chloride salt], the IC50 was under 1 µM.
The same measure, in the same setting: then `CCNC(=O)Nc1cccc(-c2cnc3cc(-c4ccc(N5CCCCC5)nc4)ccn23)c1` [Example 58, 1-Ethyl-3-{3-[7-(3,4,5,6-tetrahydro-2H-[1,2′]bipyridinyl-5′-yl)-imidazo[1,2-a]pyridin-3-yl]-phenyl}-urea hydro-chloride salt], with under 1 µM; and `CC(=O)Nc1cccc(-c2cnc3cc(-c4ccnc(N5CCN(C)CC5)c4)ccn23)c1` [Example 62, N-(3-{7-[2-(4-Methyl-piperazin-1-yl)-pyridin-4-yl]-imidazo[1,2-a]pyridin-3-yl}-phenyl)-acetamide], with under 1 µM; and `CCC(=O)Nc1cccc(-c2cnc3cc(-c4ccc(F)cc4)ccn23)c1` [Example 64, N-{3-[7-(4-Fluoro-phenyl)-imidazo[1,2-a]pyridin-3-yl]-phenyl}-propionamide], with under 1 µM.
Take `CC(=O)Nc1cccc(-c2cnc3cc(-c4ccc(OCC(O)CO)cc4)ccn23)c1` (stereo not drawn) [Example 65, N-(3-{7-[4-(2,3-Dihydroxy-propoxy)-phenyl]-imidazo[1,2-a]pyridin-3-yl}-phenyl)-acetamide]: the IC50 was under 1 µM.
Take `CCCC(=O)Nc1cccc(-c2cnc3cc(-c4ccc(F)cc4)ccn23)c1` [Example 66, N-{3-[7-(4-Fluoro-phenyl)-imidazo[1,2-a]pyridin-3-yl]-phenyl}-butyramide]: the IC50 is under 1 µM.
For the compound `NCC(=O)Nc1cccc(-c2cnc3cc(-c4ccc(F)cc4)ccn23)c1` [Example 67, 2-Amino-N-{3-[7-(4-fluoro-phenyl)-imidazo[1,2-a]pyridin-3-yl]-phenyl}-acetamide formate salt], the IC50 was under 1 µM.
The same measure, in the same setting: then `COc1cc(NC(C)=O)cc(-c2cnc3cc(-c4cccc(CN5CCOCC5)c4)ccn23)c1` [Example 78, N-{3-Methoxy-5-[7-(3-morpholin-4-ylmethyl-phenyl)-imidazo[1,2-a]pyridin-3-yl]-phenyl}-acetamide], with under 1 µM; and `CCNC(=O)Nc1cccc(-c2cnc3cc(-c4cccc(C(=O)N5CCN(C)CC5)c4)ccn23)c1` [Example 79, 1-Ethyl-3-(3-{7-[3-(4-methyl-piperazine-1-carbonyl)-phenyl]-imidazo[1,2-a]pyridin-3-yl}-phenyl)-urea], with under 1 µM; and `CCNC(=O)Nc1cccc(-c2cnc3cc(-c4ccc(N(C)C)nc4)ccn23)c1` [Example 80, 1-{3-[7-(6-Dimethylamino-pyridin-3-yl)-imidazo[1,2-a]pyridin-3-yl]-phenyl}-3-ethyl-urea formate salt], with under 1 µM.
With `CCNC(=O)Nc1cccc(-c2cnc3cc(-c4ccc(C(=O)N5CCN(C)CC5)cc4)ccn23)c1` [Example 81, 1-Ethyl-3-(3-{7-[4-(4-methyl-piperazine-1-carbonyl)-phenyl]-imidazo[1,2-a]pyridin-3-yl}-phenyl)-urea], the IC50 was under 1 µM.
With `CCNC(=O)Nc1cccc(-c2cnc3cc(-c4ccc(CN5CCC5)cc4)ccn23)c1` [Example 82, 1-{3-[7-(4-Azetidin-1-ylmethyl-phenyl)-imidazo[1,2-a]pyridin-3-yl]-phenyl}-3-ethyl-urea], the IC50 is under 1 µM.
Consider `CCNC(=O)Nc1cccc(-c2cnc3cc(-c4cccc(OCCOC)c4)ccn23)c1` [Example 83, 1-Ethyl-3-(3-{7-[3-(2-methoxy-ethoxy)-phenyl]-imidazo[1,2-a]pyridin-3-yl}-phenyl)-urea], for which the IC50 is under 1 µM.
As to `CCNC(=O)Nc1cccc(-c2cnc3cc(-c4cnn(C)c4)ccn23)c1` [Example 94, 1-Ethyl-3-{3-[7-(1-methyl-1H-pyrazol-4-yl)-imidazo[1,2-a]pyridin-3-yl]-phenyl}-urea], the IC50 is under 1 µM.
As for `CCNC(=O)Nc1cccc(-c2cnc3cc(-c4ccc(=O)n(C)c4)ccn23)c1` [Example 95, 1-Ethyl-3-{3-[7-(1-methyl-6-oxo-1,6-dihydro-pyridin-3-yl)-imidazo[1,2-a]pyridin-3-yl]-phenyl}-urea], the IC50 is under 1 µM.

Staying with this experiment, now noted: Homo sapiens, LP-1, read-out: LP-1 pERK ELISA (μM).
With `O=C(NCC(F)(F)F)Nc1cccc(-c2cnc3cc(-c4ccc(F)cc4)ccn23)c1` [Example 59, 1-{3-[7-(4-fluoro-phenyl)-imidazo[1,2-a]pyridin-3-yl]-phenyl}-3-(2,2,2-trifluoro-ethyl)-urea], the IC50 turned out to be 0.0021 µM.

The values are drawn from patent publication US8895745B2, “Bicyclic heterocyclic compounds as FGFR inhibitors” (Astex Therapeutics Limited, priority 2006, dated 2014).
